These results are taken from patent publication US8173689B2 (Novartis AG, priority 2006, dated 2012).

Like-named read-outs stand apart in the source and are kept apart here.

One experiment has as its target T1, kinase domain of cKIT (Homo sapiens, UniProt P10721).
T1 construct: The kinase domain of cKIT was assayed in 50 mM Hepes; purchased Upstate 14-559
The experiment can be described thus: Inhibition of cKIT kinase signaling in an in vitro biochemical assay (alphascreen). As to conditions: tested at about 1 μM, read-out: cKit percent inhibition.

The next experiment addresses T2, kinase domain of PDGFRβ (Homo sapiens, UniProt P09619).
T2 construct: The kinase domain of PDGFRβ was assayed in 50 mM Hepes; purchased Invitrogen P3082
The experiment can be described thus: Inhibition of PDGFRb kinase signaling in an in vitro biochemical assay (alphascreen). The conditions noted are these: tested at about 1 μM, read-out: PDGFRβ percent inhibition. In general terms: In Alpha technology, singlet oxygen from a donor bead excites a nearby acceptor bead.

Experiment [1] deals with MNFS60 (murine AML cells). The experiment can be described thus: Cell viability assay in MCSF dependent MNFS60 cells (Cell Titer Glo). It counts as cell-based. The conditions noted are these: Mus musculus, tested at about 1 μM, read-out: M-NFS-60 CP percent inhibition. In outline: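 Compounds were serially diluted 3-fold in DMSO to 500× final and added to cells with MCSF at 10 ng/ml final. After 72 hrs at 37° C. under 5% CO2, viable cells were quantified by CellTiter-Glo luminescence; triplicate wells gave EC50 values by curve fitting.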

The target of experiment [2] is T3, cytoplasmic domain of the human CSF-1R (Homo sapiens, UniProt P07333).
T3 construct: Recombinant protein corresponding to the cytoplasmic domain of the human CSF-1R; purchased Invitrogen Corporation, Carlsbad, Calif; PV3249
T3 sequence (P07333 539-972 limits assumed): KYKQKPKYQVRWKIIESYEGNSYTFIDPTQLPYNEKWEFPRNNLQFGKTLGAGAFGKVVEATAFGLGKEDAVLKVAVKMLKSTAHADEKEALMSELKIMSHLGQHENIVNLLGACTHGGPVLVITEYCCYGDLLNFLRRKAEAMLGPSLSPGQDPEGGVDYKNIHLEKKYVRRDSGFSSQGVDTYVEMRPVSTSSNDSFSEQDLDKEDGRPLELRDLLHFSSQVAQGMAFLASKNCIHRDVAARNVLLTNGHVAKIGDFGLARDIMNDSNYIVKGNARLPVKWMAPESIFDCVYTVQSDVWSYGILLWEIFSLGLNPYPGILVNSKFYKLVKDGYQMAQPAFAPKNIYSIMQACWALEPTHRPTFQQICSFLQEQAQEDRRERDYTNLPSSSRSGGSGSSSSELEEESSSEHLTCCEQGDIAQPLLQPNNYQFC
The experiment in a line: In vitro kinase assay for colony stimulating factor-1 receptor (AlphaScreen). It counts as biochemical. As to conditions: tested at about 1 μM, read-out: CSF-1R percent inhibition. An outline of the steps: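 AlphaScreen read-out (PT66 anti-pTyr acceptor beads, streptavidin donor beads, overnight incubation) measured phosphorylated peptide product. The product was formed by the human CSF-1R cytoplasmic domain at 4 nM with 1 µM ATP in Mg2+/Mn2+ HEPES buffer, pH 7.5. Compound dilution series were 3-fold, starting at 25 µM.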

Experiment [3] concerns the target T4, full-length human CSF-1R receptor (Homo sapiens, UniProt P07333).
T4 construct: transfected with the full-length human CSF-1R receptor cloned in house; expressed in transfected cells; host or cells: HEK293H (Invitrogen Cat. #11631017)
The experiment in a line: In vitro inhibition of CSF-1R receptor tyrosine phosphorylation in transfected HEK293H cells stimulated with MCSF. It counts as cell-based. The conditions noted are these: HEK293-H, tested at about 1 μM, read-out: pCSF1R percent inhibition. As for the experimental part:
The lysate was then transferred to total CSF-1R antibody coated 96-well plates that had already been blocked with 3% Blocker A from Mesoscale discovery (MSD) for 2 hours and washed afterwards. Lysates were incubated overnight at 4° C. and the plates were then washed 4× with MSD Tris Wash Buffer. […] The plates were read on the Sector 6000 instrument (MSD). Raw data was imported in Abase and EC50s calculated with XL-fit data analysis software.

T2 sequence (P09619 600-962 limits assumed): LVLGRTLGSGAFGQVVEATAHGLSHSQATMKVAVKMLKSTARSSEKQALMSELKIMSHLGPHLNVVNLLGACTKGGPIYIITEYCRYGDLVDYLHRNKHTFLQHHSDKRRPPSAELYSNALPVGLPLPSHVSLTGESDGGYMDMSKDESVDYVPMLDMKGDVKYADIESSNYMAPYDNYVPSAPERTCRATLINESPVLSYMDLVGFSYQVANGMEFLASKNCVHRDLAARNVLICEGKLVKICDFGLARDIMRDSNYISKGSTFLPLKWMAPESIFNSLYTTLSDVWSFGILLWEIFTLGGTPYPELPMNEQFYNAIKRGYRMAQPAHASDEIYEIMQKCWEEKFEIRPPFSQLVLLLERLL
T4 sequence (P07333 20-972): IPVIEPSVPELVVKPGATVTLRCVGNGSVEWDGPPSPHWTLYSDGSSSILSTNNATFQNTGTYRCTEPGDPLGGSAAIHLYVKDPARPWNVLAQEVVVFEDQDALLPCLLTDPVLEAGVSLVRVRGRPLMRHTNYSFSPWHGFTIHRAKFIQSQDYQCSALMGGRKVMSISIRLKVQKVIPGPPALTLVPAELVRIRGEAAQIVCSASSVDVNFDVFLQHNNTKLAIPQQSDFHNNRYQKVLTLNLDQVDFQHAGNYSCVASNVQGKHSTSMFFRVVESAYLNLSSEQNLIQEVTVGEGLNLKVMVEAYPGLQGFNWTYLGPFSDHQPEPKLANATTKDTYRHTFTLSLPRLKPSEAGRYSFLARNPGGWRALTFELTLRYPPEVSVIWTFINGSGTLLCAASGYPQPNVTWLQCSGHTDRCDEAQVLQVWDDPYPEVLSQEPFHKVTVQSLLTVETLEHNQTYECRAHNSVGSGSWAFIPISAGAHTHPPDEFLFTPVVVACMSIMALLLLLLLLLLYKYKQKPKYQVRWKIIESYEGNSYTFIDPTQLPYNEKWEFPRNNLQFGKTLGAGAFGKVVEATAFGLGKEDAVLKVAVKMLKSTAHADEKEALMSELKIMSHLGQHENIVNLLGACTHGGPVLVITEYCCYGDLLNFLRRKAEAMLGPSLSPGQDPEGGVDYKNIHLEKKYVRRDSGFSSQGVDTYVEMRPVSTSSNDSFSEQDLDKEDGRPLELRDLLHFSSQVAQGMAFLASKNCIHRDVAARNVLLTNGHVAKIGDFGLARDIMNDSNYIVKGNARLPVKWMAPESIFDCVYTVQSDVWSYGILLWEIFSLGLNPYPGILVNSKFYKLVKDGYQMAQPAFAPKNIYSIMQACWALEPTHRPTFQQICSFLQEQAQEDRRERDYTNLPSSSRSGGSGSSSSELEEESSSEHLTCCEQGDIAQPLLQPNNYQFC
T1 sequence (P10721 589-937 limits assumed): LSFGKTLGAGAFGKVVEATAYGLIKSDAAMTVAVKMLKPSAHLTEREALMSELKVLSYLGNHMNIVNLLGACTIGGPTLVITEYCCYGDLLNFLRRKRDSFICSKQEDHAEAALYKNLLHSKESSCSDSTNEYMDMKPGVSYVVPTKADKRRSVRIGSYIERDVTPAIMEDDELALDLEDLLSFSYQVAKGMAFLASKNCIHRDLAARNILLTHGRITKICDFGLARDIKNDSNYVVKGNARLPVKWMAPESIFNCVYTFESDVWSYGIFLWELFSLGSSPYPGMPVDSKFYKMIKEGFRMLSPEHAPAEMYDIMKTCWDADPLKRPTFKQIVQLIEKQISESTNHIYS

Regarding `CNC(=O)c1cc(Oc2ccc3nc(N[C@H](CO)C(C)C)sc3c2)ccn1` [Compound 102], the inhibition at 1 µM was 0% on kinase domain of cKIT (compounds of Table 3); 9% on kinase domain of PDGFRβ (compounds of Table 3); 75% in experiment [1] (compounds of Table 3); 100% in experiment [2] (compounds of Table 3); 88% in experiment [3] (compounds of Table 3).

On to `CNC(=O)c1cc(Oc2ccc3nc(NC4CCCc5ccccc54)oc3c2)ccn1` (stereo not shown) [Compound 104, 4-[2-(1,2,3,4-Tetrahydro-naphthalen-1-ylamino)-benzooxazol-6-yloxy]-pyridine-2-carboxylic acid methylamide], for which the inhibition at 1 µM on kinase domain of cKIT is 18%; at kinase domain of PDGFRβ, 10%; in experiment [1] (MNFS60 cells), 47%; in experiment [2] it was 99%; in experiment [3] (HEK293H cells) it was 63%.

As for `CNC(=O)c1cc(Oc2ccc3nc(NCc4ccccc4-n4cccn4)oc3c2)ccn1` [Compound 105, 4-[2-(2-Pyrazol-1-yl-benzyl-amino)-benzooxazol-6-yloxy]-pyridine-2-carboxylic acid methylamide], the inhibition at 1 µM worked out at 22% at kinase domain of cKIT; 8% on kinase domain of PDGFRβ; 49% in experiment [1] (MNFS60 cells); 99% in experiment [2]; 70% in experiment [3] (HEK293H cells).

In the case of `CNC(=O)c1cc(Oc2ccc3nc(NCc4cccc5c4OCCCO5)oc3c2)ccn1` [Compound 108, 4-{2-[(3,4-Dihydro-2H-benzo[b][1,4]dioxepin-6-ylmethyl)-amino]-benzooxazol-6-yloxy}-pyridine-2-carboxylic acid methylamide], the inhibition at 1 µM on kinase domain of cKIT worked out at 100%; at kinase domain of PDGFRβ, 40%; in experiment [1] (MNFS60 cells), 100%; in experiment [2] it was 99%; in experiment [3] (HEK293H cells), 98%.

As to `Cc1cnc(-c2cc(Oc3ccc4nc(NCC5CCCCC5)oc4c3)ccn2)[nH]1` [Compound 109, Cyclohexylmethyl-{6-[2-(5-methyl-1H-imidazol-2-yl)-pyridin-4-yloxy]-benzooxazol-2-yl}-amine], the inhibition at 1 µM at kinase domain of cKIT amounted to 53%; at kinase domain of PDGFRβ, 75%; in experiment [1] (MNFS60 cells), 81%; in experiment [2], 100%; in experiment [3] (HEK293H cells), 90%.

For `CNC(=O)c1cc(Oc2ccc3nc(NCc4ccc(OC)c(OC)c4Cl)oc3c2)ccn1` [Compound 117, 4-[2-(2-Chloro-3,4-dimethoxy-benzylamino)-benzooxazol-6-yloxy]-pyridine-2-carboxylic acid methylamide], the inhibition at 1 µM on kinase domain of cKIT was 96%; at kinase domain of PDGFRβ, 0%; in experiment [1] (MNFS60 cells), 61%; in experiment [2], 100%; in experiment [3] (HEK293H cells), 88%.

With `CNC(=O)c1cc(Oc2ccc3nc(NCc4ccccc4N4CCCCC4)oc3c2)ccn1` [Compound 118, 4-[2-(2-Piperidin-1-yl-benzylamino)-benzooxazol-6-yloxy]-pyridine-2-carboxylic acid methylamide], the inhibition at 1 µM was found to be 95% at kinase domain of cKIT; 49% on kinase domain of PDGFRβ; 83% in experiment [1] (MNFS60 cells); 100% in experiment [2]; 69% in experiment [3] (HEK293H cells).

For the compound `CNC(=O)c1cc(Oc2ccc3nc(NCc4ccc5c(c4)CCO5)oc3c2)ccn1` [Compound 124, 4-{2-[(2,3-Dihydro-benzofuran-5-ylmethyl)-amino]-benzooxazol-6-yloxy}-pyridine-2-carboxylic acid methylamide], the inhibition at 1 µM at kinase domain of cKIT came out at 32%; at kinase domain of PDGFRβ, 0%; in experiment [1] (MNFS60 cells), 51%; in experiment [2], 99%; in experiment [3] (HEK293H cells) it was 94%.

As for `CNC(=O)c1cc(Oc2ccc3nc(NC(C)c4cccc5c4OCCO5)oc3c2)ccn1` (stereo not shown) [Compound 125, 4-{2-[1-(2,3-Dihydro-benzo-[1,4]dioxin-5-yl)-ethylamino]-benzooxazol-6-yloxy}-pyridine-2-carboxylic acid methylamide], the inhibition at 1 µM amounted to 35% on kinase domain of cKIT; 0% at kinase domain of PDGFRβ; 44% in experiment [1] (MNFS60 cells); 100% in experiment [2]; 45% in experiment [3] (HEK293H cells).

Turning to `CNC(=O)c1cc(Oc2ccc3nc(NCc4ccccc4Cl)sc3c2)ccn1` [Compound 127, 4-[2-(2-Chloro-benzylamino)-benzothiazol-6-yloxy]-pyridine-2-carboxylic acid methylamide], the inhibition at 1 µM at kinase domain of cKIT is 81%; on kinase domain of PDGFRβ it was 20%; in experiment [1] (MNFS60 cells), 95%; in experiment [2], 100%; in experiment [3] (HEK293H cells) it was 95%.

On to `CNC(=O)c1cc(Oc2ccc3nc(NCC4CCCCC4)sc3c2)ccn1` [Compound 128, 4-[2-(Cyclohexylmethyl-amino)-benzothiazol-6-yloxy]-pyridine-2-carboxylic acid methylamide], for which the inhibition at 1 µM at kinase domain of cKIT came to 90%; on kinase domain of PDGFRβ, 83%; in experiment [1] (MNFS60 cells), 95%; in experiment [2] it was 100%; in experiment [3] (HEK293H cells), 95%.

Take `CNC(=O)c1cc(Oc2ccc3nc(N[C@@H]4C[C@H]5CC[C@@H]4C5)sc3c2)ccn1` [Compound 128]: the inhibition at 1 µM on kinase domain of cKIT (compounds of Table 3) amounted to 29%; at kinase domain of PDGFRβ (compounds of Table 3), 20%; in experiment [1] (compounds of Table 3), 82%; in experiment [2] (compounds of Table 3), 100%; in experiment [3] (compounds of Table 3), 88%.

Take `CNC(=O)c1cc(Oc2ccc3nc(N[C@H](C)c4ccccc4OC)sc3c2)ccn1` [Compound 129, 4-{2-[(R)-1-(2-Methoxy-phenyl)-ethylamino]-benzothiazol-6-yloxy}-pyridine-2-carboxylic acid methylamide]: the inhibition at 1 µM at kinase domain of cKIT was determined as 92%; at kinase domain of PDGFRβ it was 34%; in experiment [1] (MNFS60 cells), 94%; in experiment [2], 99%; in experiment [3] (HEK293H cells) it was 92%.

Consider `CNC(=O)c1cc(Oc2ccc3nc(NCc4ccc(Cl)cc4Cl)sc3c2)ccn1` [Compound 130, 4-[2-(2,4-Dichloro-benzylamino)-benzothiazol-6-yloxy]-pyridine-2-carboxylic acid methylamide], for which the inhibition at 1 µM came to 87% on kinase domain of cKIT; 25% at kinase domain of PDGFRβ; 72% in experiment [1] (MNFS60 cells); 99% in experiment [2]; 85% in experiment [3] (HEK293H cells).

Turning to `CNC(=O)c1cc(Oc2ccc3nc(N[C@H](C)c4ccccc4)sc3c2)ccn1` [Compound 131, 4-[2-((R)-1-Phenyl-ethylamino)-benzothiazol-6-yloxy]-pyridine-2-carboxylic acid methylamide], the inhibition at 1 µM at kinase domain of cKIT was 96%; at kinase domain of PDGFRβ, 55%; in experiment [1] (MNFS60 cells), 100%; in experiment [2] it was 99%; in experiment [3] (HEK293H cells), 98%.

`CNC(=O)c1cc(Oc2ccc3nc(NCc4ccccc4OC)sc3c2)ccn1` [Compound 132, 4-[2-(2-Methoxy-benzylamino)-benzothiazol-6-yloxy]-pyridine-2-carboxylic acid methylamide]: the inhibition at 1 µM at kinase domain of cKIT came out at 98%; at kinase domain of PDGFRβ, 58%; in experiment [1] (MNFS60 cells) it was 100%; in experiment [2], 99%; in experiment [3] (HEK293H cells), 98%.

With `CNC(=O)c1cc(Oc2ccc3nc(NCCc4ccccc4)sc3c2)ccn1` [Compound 133, 4-(2-Phenethylamino-benzo-thiazol-6-yloxy)-pyridine-2-carboxylic acid methylamide], the inhibition at 1 µM on kinase domain of cKIT worked out at 53%; on kinase domain of PDGFRβ, 3%; in experiment [1] (MNFS60 cells), 45%; in experiment [2], 99%; in experiment [3] (HEK293H cells), 92%.

For orientation: inhibition means how much of the control response was suppressed.
